In ChEMBL document CHEMBL5154820 (Eur J Med Chem, 2022):
Active and inactive are the calls of the source. The rule behind the calls is not given here.

Assays:
[1] = tested on: HeLa; experiment: Antiproliferation activity against human HeLa cells assessed as reduction in cell growth measured after 48 to 72 hrs by CCK-8 assay; assay type: functional, cell-based
[2] = tested on: SiHa; experiment: Antiproliferation activity against human SiHa cells assessed as reduction in cell growth measured after 48 to 72 hrs by CCK-8 assay; assay type: functional, cell-based
[3] = Antiproliferation activity against human MS751 cells assessed as reduction in cell growth measured after 48 to 72 hrs by CCK-8 assay; assay type: functional, cell-based
[4] = target: Tubulin (Sus scrofa, UniProt P02554+P02550); experiment: Inhibition of pig brain tubulin polymerization by spectrophotometeric analysis; parameters: species or system Sus scrofa domesticus
[5] = tested on: HCT-116; experiment: Antiproliferation activity against human HCT-116 cells assessed as reduction in cell growth; assay type: functional, cell-based
[6] = tested on: A549; experiment: Antiproliferation activity against human A549 cells assessed as reduction in cell growth; assay type: functional, cell-based
[7] = species: Bos taurus; experiment: Inhibition of calf brain tubulin polymerization upto 50 uM measured after 40 mins by spectrophotometric analysis
[8] = target: T1, Tubulin beta (Homo sapiens) (UniProt P68371+Q9H4B7+Q13509+P04350+Q3ZCM7+P07437+Q13885+Q9BVA1+Q9BUF5+A6NNZ2); experiment: Binding affinity to beta-tubulin colchicine binding site in human HeLa cells assessed as decrease of adduct formation by measuring gray value measured at 25 uM incubated for 2 hrs followed by addition of EBI measured after 1.5 hrs by EBI competition based Western blotting analysis; assay type: cell-based; conditions: time 3.5 hrs
[9] = target: T1, Tubulin beta (Homo sapiens); experiment: Binding affinity to beta-tubulin colchicine binding site in human HeLa cells assessed as decrease of adduct formation by measuring gray value measured at 5 uM incubated for 2 hrs followed by addition of EBI measured after 1.5 hrs by EBI competition based Western blotting analysis; assay type: cell-based; conditions: time 3.5 hrs
[10] = Retention time of the compound; assay type: physicochemical

Structure (SMILES) | IC50 [1] [nM] | IC50 [2] [nM] | IC50 [3] [nM] | IC50 [4] [µM] | other results
COc1cc2c(c(OC)c1OC)-c1ccc(OC)c(=O)cc1[C@@H](NC(C)=O)CC2 [COLCHICINE] | 42 | 45 | 35 |  | 
CCOC(=O)Oc1cc(-c2cncnc2-c2cc(OC)c(OC)c(OC)c2)ccc1OC | 650 | 1890 | 780 | > 100 | 
COc1ccc(-c2cncnc2-c2cc(OC)c(OC)c(OC)c2)cc1F | 500 | 3340 | 1100 | 29.9 | 
COc1ccc(-c2cncnc2-c2cc(OC)c(OC)c(OC)c2)cc1O | 280 | 2750 | 830 | 13.4 | 
COc1cc(-c2ncncc2-c2ccc(Br)cc2)cc(OC)c1OC | 500 | 2960 | 2840 |  | 
COc1cc(-c2ncncc2-c2cccc3ccccc23)cc(OC)c1OC |  |  |  |  | IC50 [5]: 2500 nM; IC50 [6]: 2500 nM; Activity [7]: Active
CC[C@]1(O)C[C@H]2CN(CCc3c([nH]c4ccccc34)[C@@](C(=O)OC)(c3cc4c(cc3OC)N(C=O)[C@H]3[C@@](O)(C(=O)OC)[C@H](OC(C)=O)[C@]5(CC)C=CCN6CC[C@]43[C@@H]65)C2)C1 |  |  |  |  | Activity [8]: 0.98; Activity [9]: 1.12
CCOc1ccc(-c2cncnc2-c2cc(OC)c(OC)c(OC)c2)cc1F | 470 | 800 | 750 | 17.1 | 
CCOc1ccc(-c2cncnc2-c2cc(OC)c(OC)c(OC)c2)cc1C(F)(F)F | 790 | 20000 | 25000 | > 100 | 
CCSc1ccc(-c2cncnc2-c2cc(OC)c(OC)c(OC)c2)cc1 | 370 | 1030 | 1560 |  | 
COc1cc(-c2ncncc2-c2ccc(OC(C)C)cc2)cc(OC)c1OC | 8360 | 9970 | 33900 |  | 
COc1cc(-c2ncncc2-c2ccc(B(O)O)cc2)cc(OC)c1OC | 4000 | 17500 | 32400 |  | 
COc1ccc(-c2cncnc2-c2cc(OC)c(OC)c(OC)c2)cc1Cl | 320 | 1330 | 790 | 53.1 | Retention_time [10]: 2.23 min
COc1cc(-c2ncncc2-c2ccc3cc[nH]c3c2)cc(OC)c1OC | 770 | 2180 | 1090 | 62.8 | 
COc1ccc(-c2cncnc2-c2cc(OC)c(OC)c(OC)c2)cc1 | 1140 | 2850 | 1300 | 71.2 | 
CNC(=O)c1ccc(-c2cncnc2-c2cc(OC)c(OC)c(OC)c2)cc1 | 1470 | 10900 | 13200 |  | 
COc1cc(-c2ncncc2-c2ccc(C(N)=O)cc2)cc(OC)c1OC | > 100000 | > 100000 | > 100000 |  | 
COc1ccc(-c2cncnc2-c2cc(OC)c(OC)c(OC)c2)nc1 | 470 | 1750 | 830 | 63.7 | 
COc1cc(-c2ncncc2-c2ccc3c(c2)OCO3)cc(OC)c1OC | 1160 | 5400 | 1360 |  | 
COc1cc(-c2ncncc2-c2ccc(C(=O)N(C)C)cc2)cc(OC)c1OC | 790 | 20200 | 1370 |  | 
COc1cc(-c2ncncc2-c2ccc(OCC(F)(F)F)cc2)cc(OC)c1OC | 10200 | 33300 | 9000 |  | 
COc1cc(-c2ncncc2-c2ccc(SC)cc2)cc(OC)c1OC | 220 | 560 | 130 | 9.3 | 
CCOc1ccc(-c2cncnc2-c2cc(OC)c(OC)c(OC)c2)cc1 | 250 | 640 | 220 | 3.7 | 
